Experimental findings from patent EP0107208A1, “1,1,2-Triphenyl-but-1-ene derivatives, process for their preparation and their use as medicines” (Klinge Pharma GmbH, priority 1982, dated 1984) are described below.

Values joined by “and” are separate entries in the source; they are usually repeats but may differ in a detail not shown here. Equal values may be shown once. Read-outs that look alike come from different tables or passages of the source.

For one test, the target named is T1, Estradiolrezeptor (Oryctolagus cuniculus, UniProt G1SML6).
T1 construct: Das Uteruscytosol von weiblichen, präpubertären, weißen 2 kg schweren Kaninchen (Neuseeländer); from tissue; host or cells: uterus cytosol of female prepubertal New Zealand white rabbits
T1 sequence (G1SML6 1-598): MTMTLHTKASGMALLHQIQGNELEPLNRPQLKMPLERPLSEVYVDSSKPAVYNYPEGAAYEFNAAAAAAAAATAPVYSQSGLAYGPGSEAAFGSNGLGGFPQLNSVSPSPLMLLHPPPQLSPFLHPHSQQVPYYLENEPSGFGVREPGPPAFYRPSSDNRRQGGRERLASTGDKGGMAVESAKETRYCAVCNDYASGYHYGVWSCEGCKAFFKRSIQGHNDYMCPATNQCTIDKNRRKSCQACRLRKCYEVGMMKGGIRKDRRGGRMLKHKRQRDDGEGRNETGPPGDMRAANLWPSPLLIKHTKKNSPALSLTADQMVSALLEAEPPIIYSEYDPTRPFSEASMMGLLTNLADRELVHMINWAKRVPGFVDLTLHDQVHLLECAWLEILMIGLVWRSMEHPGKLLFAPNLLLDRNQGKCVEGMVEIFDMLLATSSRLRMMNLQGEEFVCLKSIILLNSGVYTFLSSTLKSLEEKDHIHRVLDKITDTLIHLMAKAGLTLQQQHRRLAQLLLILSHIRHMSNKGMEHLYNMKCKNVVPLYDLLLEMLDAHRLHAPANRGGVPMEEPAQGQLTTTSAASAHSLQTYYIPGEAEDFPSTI
Description: Binding affinity to the estradiol receptor: displacement of [3H]-estradiol in rabbit uterus cytosol. Also on record: species or system Kaninchen (Neuseeländer). The conditions noted are these: molar concentration displacing 50% [3H]-Estradiol from the receptor, 18 h at 4° C, 2.5 ×10^-9 M [3H]-Estradiol, read-out: ED50% (the source's name). From the text: Die Messung der Eindungsaffinität zum Estradiolrezeptor erfolgte nach der Eethode von N. Devleeschouwer, G. Leclercq, A. Danguy und J. C. Heuson LEurop. J. Cancer, 14 ,721 - 723 (197o)].
Testsubstanz verschiedener Konzentration inkubiert.Die Bindungsaffinität zum Estradiolrezeptor wird ausgedrückt durch die aen. […] Testsubstanz, welche eine 5C-prcz.

Test [1] concerns ZR-75-1-Zellen. The test can be described thus: Inhibition of RNA synthesis in isolated human mammary tumour cells (incorporation of labelled uridine). The format is cell-based. The conditions noted are these: for inhibition at 0.1 µM / inhibition at 1 µM / inhibition at 4 µM: Homo sapiens, ZR-75-1, 48 h; for Prozentuale Hemmung der RNS-Synthese: 2880 min. From the text: […] positive [ER +] Mammatumor-Zellen aus Patienten zu isolieren und in vitro kontinuierlich zu […] sog. […] in vivo beobachteten morphologischen […] und […] somit […] zur Testung von Antiestrogenen dar,da direkte Aussagen über den Einfluß auf den in vivo zu […]. […] Der Einfluß der beanspruchten Verbindunger. auf das Wachstum dieser Zellen wurde über den Einbau von […] bzw. Thymidin nach der Methode von Lippman, M. et al kontrolliert. […] Thymidin versetzt und nach einer Stunde die Einbaurate des markierten Materials in den Zellen bestimmt.

In test [2] the test system is ZR-75-1-Zellen. Description: Inhibition of RNA synthesis in ZR-75-1 cells in the presence of 17-β-estradiol. The test is classed as cell-based. The following applies: Homo sapiens, compound 1 x 10^-6 [M] + 17-β-Estradiol 1 x 10^-8 [M], 48 h incubation, read-out: Prozentuale Hemmung der RNS-Synthese. From the text: Zur […] vivo wurde die Potenz der antiestrogenen Wirkung der beanspruchten Verbindungen in Gegenwart eines Estrogens geprüft. […] Thymidin hinzugefügt und nach einer Stunde die Einbaurate des markierten Materials in gen Zellen bestimmt.[Tab.4]

The mark [3] stands for this setting: read-out: Prozentuale Hemmung der RNS-Synthese.

In the case of `CC/C(=C(/c1ccc(OCCN(C)C)cc1)c1cccc(O)c1)c1ccc(C)cc1` [Verbindung 2], the IC50 on Estradiolrezeptor came to 73 nM. Moreover, in the test on ZR-75-1-Zellen [1] (setting [3]), the inhibition at 0.1 µM stood at 42%, the inhibition at 1 µM was determined as 62% and the inhibition at 4 µM amounted to 100%. Further, the inhibition at 1 µM in the test on ZR-75-1-Zellen [2] came to 58%.

In the case of `CC/C(=C(/c1ccc(OCCN(C)C)cc1)c1cccc(O)c1)c1ccc(Br)cc1` [Verbindung 6, (E)-2-(4'-Bromphenyl)-1-[4'-(2-dimethylaminoethoxy)phenyl]-1-(3'-hydroxyphenyl)-but-l-en], in the test with ZR-75-1-Zellen [1] (setting [3]), the inhibition at 0.1 µM was 47%, the inhibition at 1 µM came to 70% and the inhibition at 4 µM was 100%. Besides, the inhibition at 1 µM in the test with ZR-75-1-Zellen [2] was determined as 74%.

Turning to `CC/C(=C(/c1ccc(OCCN(C)C)cc1)c1cccc(O)c1)c1cccc(C)c1` [Verbindung 1, (E)-1-[4'-(2-Dimethylaminoethoxy)phenyl]-1-(3'-hydroxyphenyl)-2-(3'-methylphenyl)-but-1-en], the IC50 at Estradiolrezeptor worked out at 35 nM. Moreover, in the test on ZR-75-1-Zellen [1] (setting [3]), the inhibition at 0.1 µM was 47%, the inhibition at 1 µM was 74% and the inhibition at 4 µM was determined as 100%. The inhibition at 1 µM in the test on ZR-75-1-Zellen [2] is 74%.

With `CC/C(=C(/c1ccc(OCCN(CC)CC)cc1)c1cccc(O)c1)c1ccc(OC)cc1` [Verbindung 7, (E)-1-[4'-(2-Diethylaminoethoxy)phenyl]-1-(3'-hydroxyphenyl)-2-(4'methoxyphenyl)-but-l-en], in the test on ZR-75-1-Zellen [1] (setting [3]), the inhibition at 0.1 µM worked out at 4%, the inhibition at 1 µM turned out to be 37% and the inhibition at 4 µM was determined as 91%. Besides, the inhibition at 1 µM in the test with ZR-75-1-Zellen [2] was determined as 41%.

With `CC/C(=C(\c1ccccc1)c1ccc(OCCN(C)C)cc1)c1ccccc1` [Tamoxifen, (Z)-1-[4'-(2-Dimetrylaminoethcxy)phenyl]-1,2-diphenyl-but-1-en, reference compound], in the test on ZR-75-1-Zellen [1] (read-out: Prozentuale Hemmung der RNS-Synthese, substance concentration 1 x 10^-6[M], 48 h incubation, Tamoxifen run in each experiment), the inhibition at 1 µM was 43%. Further, the inhibition at 4 µM with ZR-75-1-Zellen [1] (read-out: Prozentuale Hemmung der RNS-Synthese, substance concentration 4 x 10^-6[M], 48 h incubation, Tamoxifen run in each experiment) was 99%. Also, the “Prozentuale Hemmung der RNS-Synthese” value in the test on ZR-75-1-Zellen [1] (substance concentration 1 x 10^-6[M], 48 h incubation, Tamoxifen run in each experiment, 1 µM) is 44% and 39% and 59%; with ZR-75-1-Zellen [1] (substance concentration 1 x 10^-6[M], 48 h incubation, Tamoxifen run in each experiment, listed as Taxoxifen, 1 µM), 46%; with ZR-75-1-Zellen [1] (substance concentration 1 x 10^-7[M], 48 h incubation, Tamoxifen run in each experiment, 0.1 µM) it was 29% and 16%; in the test on ZR-75-1-Zellen [1] (substance concentration 1 x 10^-7[M], 48 h incubation, Tamoxifen run in each experiment, 0.1 µM, listed as Taxoxifen), 2%; with ZR-75-1-Zellen [1] (substance concentration 4 x 10^-6[M], 48 h incubation, Tamoxifen run in each experiment, 4 µM) it was 100%; with ZR-75-1-Zellen [1] (substance concentration 4 x 10^-6[M], 48 h incubation, Tamoxifen run in each experiment, listed as Taxoxifen, 4 µM), 93%.

For `CC/C(=C(/c1ccc(OCCN(C)C)cc1)c1cccc(O)c1)c1ccc(OC)cc1` [Verbindung 3, (E)-1-[4'-(2-Dimethylaminoethoxy)phenyl]-1-(3'-hydroxyphenyl)-2-(4'-methoxyphenyl)-but-1-en], the IC50 on Estradiolrezeptor worked out at 28 nM. In the test with ZR-75-1-Zellen [1] (setting [3]), the inhibition at 0.1 µM worked out at 36%, the inhibition at 1 µM was found to be 68% and the inhibition at 4 µM was determined as 100%. The inhibition at 1 µM with ZR-75-1-Zellen [2] is 65%.

As for `CC/C(=C(/c1ccc(OCCN(C)C)cc1)c1cccc(O)c1)c1ccc(Cl)cc1` [Verbindung 5], the IC50 on Estradiolrezeptor turned out to be 85 nM. Further, in the test on ZR-75-1-Zellen [1] (setting [3]), the inhibition at 0.1 µM was determined as 41%, the inhibition at 1 µM was found to be 61% and the inhibition at 4 µM came to 100%.

Take `CC/C(=C(/c1ccc(OCCN(C)C)cc1)c1cccc(O)c1)c1cccc(O)c1` [Verbindung 4, (E)-1-[4'-(2-Dimethylaminoethoxy)phenyl]-1,2-bis-(3'-hydroxyphenyl)-but-1-en]: in the test on ZR-75-1-Zellen [1] (setting [3]), the inhibition at 0.1 µM worked out at 33%, the inhibition at 1 µM worked out at 73% and the inhibition at 4 µM turned out to be 100%. In addition, the inhibition at 1 µM in the test with ZR-75-1-Zellen [2] worked out at 79%.
